Measured values taken from US12280088B2, “Dry powder formulation of caveolin-1 peptides and methods of use thereof” (BOARD OF REGENTS, THE UNIVERSITY OF TEXAS SYSTEM, priority 2018, dated 2025).
Values after ≈ are worked out from the molar mass of the structure shown. Like-named read-outs stand apart in the source and are kept apart here. Square brackets hold non-standard residues; d marks the D form. Peptide text beside a SMILES is read from it. Orn = NCCC[C@H](N)C(=O)O

Legend:
[1] = pH-solubility of polypeptide variants; assay type: physicochemical; conditions: read-out: pH-solubility, Concentration; for solubility thermodynamic at 3 min: a: precipitate, supernatant assayed; for solubility at 3 min: b: high viscous solution, aliquot assayed
Procedure: (§1) Solubility study of variants was performed by adding variants powders into solvent in concentration of 5 mg/ml and then vortexing for 3 min. Observe the appearance of solutions in 5 min. Add more powder (˜5 mg/ml each time) and repeat vortex and observe until precipitation or gelation occurs.

[2] = Appearance of solutions in solubility study of variants; assay type: physicochemical
Procedure: as §1

SMILES | solubility thermodynamic at 3 min ([1]; pH 4.5) | solubility thermodynamic at 3 min ([1]; pH 5.5) | solubility thermodynamic at 3 min ([1]; pH 6.5) | solubility thermodynamic at 3 min ([1]; pH 7.5) | solubility thermodynamic at 3 min ([1]; pH 8.5) | Appearance of solutions ([2]; pH 4.5, 5 mg/ml) | Appearance of solutions ([2]; pH 4.5, 10 mg/ml) | Appearance of solutions ([2]; pH 4.5, 15 mg/ml) | Appearance of solutions ([2]; pH 4.5, 20 mg/ml) | Appearance of solutions ([2]; pH 4.5, 25 mg/ml) | Appearance of solutions ([2]; pH 7.5, 5 mg/ml) | Appearance of solutions ([2]; pH 7.5, 10 mg/ml) | Appearance of solutions ([2]; pH 7.5, 15 mg/ml) | Appearance of solutions ([2]; pH 7.5, 20 mg/ml) | Appearance of solutions ([2]; pH 8.5, 5 mg/ml) | Appearance of solutions ([2]; pH 8.5, 10 mg/ml) | Appearance of solutions ([2]; pH 8.5, 15 mg/ml) | solubility at 3 min ([1]; pH 4.5) | Appearance of solutions ([2]; pH 4.5, 40 mg/ml) | Appearance of solutions ([2]; pH 8.5, 20 mg/ml) | other results
CC[C@H](C)[C@H](NC(=O)CNC(=O)[C@@H](N)CC(=O)O)C(=O)N[C@@H](Cc1c[nH]c2ccccc12)C(=O)N[C@@H](CCCCN)C(=O)N[C@@H](C)C(=O)N[C@@H](CO)C(=O)N[C@@H](Cc1ccccc1)C(N)=O [SEQ ID NO.21] (H-DGIWKASF-NH2) | 0.62 ± 0.04 mg/mL (≈ 0.672 mM) | 0.14 ± 0.02 mg/mL (≈ 0.152 mM) | 0.26 ± 0.07 mg/mL (≈ 0.282 mM) | 0.25 ± 0.03 mg/mL (≈ 0.271 mM) | 0.17 ± 0.04 mg/mL (≈ 0.184 mM) | – | – | – | – | – | – | – | – | – | – | – | – | – | – | – | –
CC(C)[C@H](NC(=O)[C@@H](NC(=O)[C@H](Cc1ccccc1)NC(=O)[C@@H](NC(=O)[C@@H](NC(=O)[C@H](Cc1ccccc1)NC(=O)[C@H](CO)NC(=O)[C@H](C)NC(=O)[C@@H](N)CCCN)[C@@H](C)O)[C@@H](C)O)[C@@H](C)O)C(=O)N[C@H](C(=O)N[C@@H](CCCN)C(=O)N[C@@H](CO)C(N)=O)[C@@H](C)O [SEQ ID NO.10, OASFTTFTVTOS-NH2] (H-[Orn]ASFTTFTVT[Orn]S-NH2) | 33.9 ± 0.9 mg/mL (≈ 26.3 mM) | 3.6 ± 0.8 mg/mL (≈ 2.79 mM) | 5.5 ± 0.7 mg/mL (≈ 4.27 mM) | 19.1 ± 0.1 mg/mL (≈ 14.8 mM) | 14.6 ± 1.6 mg/mL (≈ 11.3 mM) | Clear | Clear | Clear | Clear | Clear | Clear | Clear | Clear | Clear | Clear | Clear | Clear | – | – | – | –
CC(C)[C@H](NC(=O)[C@@H](NC(=O)[C@H](Cc1ccccc1)NC(=O)[C@@H](NC(=O)[C@@H](NC(=O)[C@H](Cc1ccccc1)NC(=O)[C@H](CO)NC(=O)[C@H](C)NC(=O)[C@@H](N)CCCCN)[C@@H](C)O)[C@@H](C)O)[C@@H](C)O)C(=O)N[C@H](C(=O)N[C@@H](CCCCN)C(=O)NCC(=O)N[C@@H](CO)C(=O)O)[C@@H](C)O [SEQ ID NO.4] (H-KASFTTFTVTKGS-OH) | 25.4 ± 0.8 mg/mL (≈ 18.5 mM) | 4 ± 0.2 mg/mL (≈ 2.91 mM) | 5.9 ± 0.4 mg/mL (≈ 4.29 mM) | 16.7 ± 0.5 mg/mL (≈ 12.1 mM) | 10.8 ± 1.1 mg/mL (≈ 7.86 mM) | Clear | Clear | Clear | Clear | Clear | Clear | Clear | – | – | Clear | Clear | – | – | – | – | –
CC(C)[C@H](NC(=O)[C@@H](NC(=O)[C@H](Cc1ccccc1)NC(=O)[C@@H](NC(=O)[C@@H](NC(=O)[C@H](Cc1ccccc1)NC(=O)[C@H](CO)NC(=O)[C@H](C)NC(=O)[C@H](CCCCN)NC(=O)CNC(=O)[C@H](CCC(=O)O)NC(=O)[C@@H](C)NC(=O)[C@@H](C)N)[C@@H](C)O)[C@@H](C)O)[C@@H](C)O)C(=O)N[C@H](C(=O)N[C@@H](CCCCN)C(=O)NCC(=O)N[C@@H](CO)C(=O)N[C@H](C)C(=O)N[C@H](C)C(N)=O)[C@@H](C)O [SEQ ID NO.7] (H-[dA][dA]EGKASFTTFTVTKGS[dA][dA]-NH2) | – | 22.3 ± 0.1 mg/mL (≈ 12.1 mM) | – | – | – | Clear | Clear | Clear | Clear | Clear | Clear | Clear | Clear | Clear | Clear | Clear | Clear | ≥ 32 mg/mL | Gel | Clear | solubility at 3 min ([1]; pH 6.5): ≥ 30.5 mg/mL; solubility at 3 min ([1]; pH 7.5): ≥ 35.3 mg/mL; solubility at 3 min ([1]; pH 8.5): ≥ 23.8 mg/mL; Appearance of solutions ([2]; pH 5.5, 5 mg/ml): Clear; Appearance of solutions ([2]; pH 5.5, 10 mg/ml): Clear; Appearance of solutions ([2]; pH 5.5, 15 mg/ml): Clear; Appearance of solutions ([2]; pH 7.5, 25 mg/ml): Clear; Appearance of solutions ([2]; pH 8.5, 25 mg/ml): Clear
CC(=O)N[C@H](C)C(=O)N[C@H](C)C(=O)N[C@@H](CCC(=O)O)C(=O)NCC(=O)N[C@@H](CCCCN)C(=O)N[C@@H](C)C(=O)N[C@@H](CO)C(=O)N[C@@H](Cc1ccccc1)C(=O)N[C@H](C(=O)N[C@H](C(=O)N[C@@H](Cc1ccccc1)C(=O)N[C@H](C(=O)N[C@H](C(=O)N[C@H](C(=O)N[C@@H](CCCCN)C(=O)NCC(=O)N[C@@H](CO)C(=O)N[C@H](C)C(=O)N[C@H](C)C(N)=O)[C@@H](C)O)C(C)C)[C@@H](C)O)[C@@H](C)O)[C@@H](C)O [SEQ ID NO.8] (Ac-[dA][dA]EGKASFTTFTVTKGS[dA][dA]-NH2) | – | 23.6 ± 0.6 mg/mL (≈ 12.5 mM) | 27.3 ± 1.2 mg/mL (≈ 14.5 mM) | 28.3 ± 2.2 mg/mL (≈ 15 mM) | 20.6 ± 2.4 mg/mL (≈ 10.9 mM) | Clear | Clear | Clear | Clear | Gel | Clear | Clear | Clear | – | Clear | Clear | Clear | ≥ 24.2 mg/mL | – | Clear | Appearance of solutions ([2]; pH 5.5, 5 mg/ml): Clear
CC(C)[C@H](N)C(=O)N[C@H](C(=O)N[C@@H](CCCCN)C(=O)N[C@@H](Cc1ccc(O)cc1)C(=O)N[C@@H](Cc1c[nH]c2ccccc12)C(=O)N[C@@H](Cc1ccccc1)C(=O)N[C@@H](Cc1ccc(O)cc1)C(=O)N[C@@H](CCCNC(=N)N)C(N)=O)[C@@H](C)O [SEQ ID NO.22] (H-VTKYWFYR-NH2) | 57.2 ± 9.1 mg/mL (≈ 49.2 mM) | 2.98 ± 0.1 mg/mL (≈ 2.57 mM) | 3.49 ± 0.6 mg/mL (≈ 3.01 mM) | 61.5 ± 1.7 mg/mL (≈ 53 mM) | 29.1 ± 3.5 mg/mL (≈ 25.1 mM) | Clear | Clear | Clear | Clear | Clear | Clear | Clear | Clear | Clear | Clear | Clear | Clear | – | Clear | Clear | Appearance of solutions ([2]; pH 4.5, 30 mg/ml): Clear; Appearance of solutions ([2]; pH 4.5, 35 mg/ml): Clear; Appearance of solutions ([2]; pH 4.5, 45 mg/ml): Clear; Appearance of solutions ([2]; pH 4.5, 50 mg/ml): Clear; Appearance of solutions ([2]; pH 4.5, 55 mg/ml): Clear; Appearance of solutions ([2]; pH 4.5, 60 mg/ml): Clear; Appearance of solutions ([2]; pH 7.5, 25 mg/ml): Clear; Appearance of solutions ([2]; pH 7.5, 30 mg/ml): Clear; Appearance of solutions ([2]; pH 7.5, 35 mg/ml): Clear; Appearance of solutions ([2]; pH 7.5, 40 mg/ml): Clear; Appearance of solutions ([2]; pH 7.5, 45 mg/ml): Clear; Appearance of solutions ([2]; pH 7.5, 50 mg/ml): Clear; Appearance of solutions ([2]; pH 7.5, 55 mg/ml): Clear; Appearance of solutions ([2]; pH 7.5, 60 mg/ml): Clear; Appearance of solutions ([2]; pH 7.5, 65 mg/ml): Turbid
